Reference: patent US20060142391A1, “PPARGAMMA-ACTIVATING PHARMACEUTICAL COMPOSITION” (priority 2001, published 2006)

Assays:
[1] = test system: GAL4 (yeast transcription activator)—PPARγ fusion protein; test: PPARγ agonist activity assay (GAL4-PPARγ / CAT reporter in COS-1 cells); format: cell-based; settings: for PPARγ agonist activity compared with 15-deoxy-PG J2 positive control: 1 μM; for PPARγ agonist activity relative to the negative control group with no drug added: concentration of 1 μM
Protocol: COS-1 cells were cotransfected with a plasmid for expressing a GAL4 (yeast transcription activator)—PPARγ fusion protein (effector plasmid) and a reporter plasmid 17 M2 CAT (GAL4 responsive sequence+TK promoter+chloramphenicol acetyltransferase cDNA), and then test compounds were added to the culture medium and CAT activity was assayed after 24 hours and compared with a negative control (with no drug added) to calculate a relative CAT activity, whereby PPARγ agonist activity was evaluated ('90 Proc. Natl. Acad. Sci. USA 87, p. 9995; '94 J. B. C. 269, p. 32700; '95 ibid. p. 5858; '00 J.B.C. 275, p. 33201). […] Then, 4(S)-OH-DHA, 8(S)-OH-DHA, 10(S)-OH-DHA, 11(S)-OH-DHA, 14(S)-OH-DHA and 17(S)-OH-DHA prepared in Example 1 were used as test compounds to assay PPARγ agonist activity as compared with 15-deoxy-PG J2 (from Bio Mol) known as a ligand for PPARγ as a positive control.

[2] = test system: hereditary diabetes db/db mice; test: Evaluation on hereditary diabetes mice (blood sugar); format: in vivo; settings: oral 100 mg/kg for a week, n=6
Protocol: As a result of oral administration of 100 mg/kg of 8(S)-OH-DHA and 14(S)-OH-DHA to hereditary diabetes db/db mice (average body weight: 42 g, n=6, available from Sankyo Co., Ltd.) for a week, a significant decrease in blood sugar levels could be observed as compared with a negative control group (treated with 5% gum acacia as a vehicle) (Table 1).

[3] = test system: rat aortic smooth muscle; settings: contraction induced by thromboxane A2 analog U 46619 (2.5 μM); cited from earlier work
[4] = test system: platelets; test: Ex vivo collagen-induced platelet aggregation assay; format: in vivo, rats; settings: 3-6 μg/ml collagen
Protocol: An evaluation was made to determine whether or not collagen-induced platelet aggregation is inhibited by 4(S)-OH-DHA.
Male SD rats (SPF, 9 weeks of age) were anesthetized and then blood was collected from the abdominal aorta into a tube containing 3.8% sodium citrate (Chitoral from Yamanouchi Pharmaceutical Co., Ltd.). The tube was centrifuged at 900 rpm at room temperature for 10 minutes to collect the supernatant (PRP, platelet-rich fraction), and the residue was further centrifuged at 2500 rpm for 15 minutes to collect the supernatant (PPP, platelet-poor fraction).
A cuvette containing PPP (platelet-poor fraction) was placed in an incubator for PPP at 37° C. in an aggregometer (Hematracer 240 12 ch, from MCM). Then, a cuvette containing 200 μl of PRP (platelet-rich fraction) was placed in a reactor for PRP. The cuvettes were stirred with a magnetic stirrer for 30 seconds to automatically correct the permeability of PPP to T650 nm=100% and the permeability of PRP to T650 nm=0%.
After 1 minute, 20 μl of collagen (from MCM) was added and subsequent changes in permeability were recorded for 5 minutes. The permeability increases with platelet aggregation. The permeability T at maximum aggregation, i.e. at the peak of aggregation was compared with the permeability T0 of a negative control to determine the degree of aggregation inhibition expressed in percentage using the following equation. Aggregation inhibition=(1−T/T0)×100
The aggregation induced by 3-6 μg/ml of collagen was evaluated in platelets prepared from blood collected at 2 instants, i.e. 10 minutes and 60 minutes after administration of 10 mg/kg of 4(S)-OH-DHA to the tail vain of male SD rats (SPF, 9 weeks of age). The aggregation was determined in animals treated with vehicle (physiological saline) as a control group.
As a control, a solvent (physiological saline) was used. Aggregation was induced by 3-6 μg/ml of collagen in platelets prepared from blood collected 10 minutes after administration of 10, 1 or 0.1 mg/kg of the test compound to the tail vain of rats.

[5] = test system: neutrophils and vascular endothelial cells; test: In vitro model simulating vascular inflammation induced by TNFα (transwell); format: cell-based, bovine; settings: 30, 3 or 0.3 μM together with TNFα
Protocol: An in vitro model simulating vascular inflammation was prepared according to the method described in “Textbook on Biopharmaceutical Experiments, 12 Inflammation and Allergy II”, pp. 327-341 (edited by Kazuo Ouchi, published by Hirokawa Publishing Co., May 15, 1993).
Transwells (from Kurabo Industries, Ltd.) divided into upper and lower chambers by a porous polycarbonate membrane having a pore size of 3 μm were used and a layer of bovine endothelial cells were coated on the bottom of the membrane and incubated at 37° C. under 5% CO2 for 80 minutes. […]
To the upper chamber of the transwells was added a suspension of neutrophils containing 4(S)-OH-DHA at a final concentration of 30, 3 or 0.3 μM together with TNFα to count the number of neutrophils permeating the vascular endothelial cell layer from the upper chamber into the lower chamber and the number of neutrophils adhering to the endothelial cell layer in the same manner as described above, and thereafter the migration and adhesion (%) of neutrophils were calculated.
The migration and adhesion percentages of neutrophils were expressed as relative values of the numbers of neutrophils that migrated or adhered in the group treated with the drug as compared with neutrophils in a negative control group.

CC/C=C\C/C=C\C[C@H](O)/C=C/C=C\C/C=C\C/C=C\CCC(=O)O [14(S)-OH-DHA]
PPARγ agonist activity compared with 15-deoxy-PG J2 positive control [1]: comparable to or higher than that of 15-deoxy-PG J2
PPARγ agonist activity relative to the negative control group with no drug added ([1]; CAT activity after 24 hours): about 7 times
Blood sugar level [2]: 220 ± 13 mg/dL

CC/C=C\C[C@H](O)/C=C/C=C\C/C=C\C/C=C\C/C=C\CCC(=O)O [17(S)-OH-DHA]
PPARγ agonist activity compared with 15-deoxy-PG J2 positive control [1]: comparable to or higher than that of 15-deoxy-PG J2
PPARγ agonist activity relative to the negative control group with no drug added ([1]; CAT activity after 24 hours): about 3 times

CC/C=C\C/C=C\C/C=C\C/C=C\C/C=C\C/C=C\CCC(=O)O [DHA, docosahexaenoic acid, reference compound]
PPARγ transcription activity, ratio as compared with the negative control ([1]; test compound at 3 μM, CAT activity after 24 hours): 205±79%

CC/C=C\C/C=C\CC(O)/C=C/C=C\C/C=C\C/C=C\CCC(=O)O (stereo not drawn) [14OH-DHA]
25% inhibition concentration IC25 [3]: 1070 ± 340 nM

CC/C=C\C/C=C\C/C=C\C=C\[C@@H](O)C/C=C\C/C=C\CCC(=O)O [10(S)-OH-DHA]
PPARγ agonist activity compared with 15-deoxy-PG J2 positive control [1]: comparable to or higher than that of 15-deoxy-PG J2
PPARγ agonist activity relative to the negative control group with no drug added ([1]; CAT activity after 24 hours): about 3 times

CC/C=C\C/C=C\C/C=C\C/C=C\C[C@H](O)/C=C/C=C\CCC(=O)O [8(S)-OH-DHA]
PPARγ agonist activity compared with 15-deoxy-PG J2 positive control [1]: comparable to or higher than that of 15-deoxy-PG J2
PPARγ agonist activity relative to the negative control group with no drug added ([1]; CAT activity after 24 hours): about 7 times
Blood sugar level [2]: 190 ± 20 mg/dL

CC/C=C\C/C=C\C/C=C\C/C=C\C/C=C\C=C\[C@@H](O)CCC(=O)O [4(S)-OH-DHA]
Platelet aggregation vs vehicle group ([4]; 1 mg/kg to tail vein, blood collected 10 minutes after administration): platelet aggregation was inhibited
Platelet aggregation vs vehicle group ([4]; 10 mg/kg to tail vein, blood collected 10 minutes after administration): platelet aggregation was inhibited
Platelet aggregation vs vehicle group ([4]; 10 mg/kg to tail vein, blood collected 60 minutes after administration): platelet aggregation was inhibited
PPARγ agonist activity compared with 15-deoxy-PG J2 positive control [1]: comparable to or higher than that of 15-deoxy-PG J2
PPARγ agonist activity relative to the negative control group with no drug added ([1]; CAT activity after 24 hours): about 3 times
Adhesion of neutrophils to the endothelial cell layer [5]: inhibited
Permeation (migration) of neutrophils through the endothelial cell layer [5]: inhibited

CC/C=C\C/C=C\C/C=C\C[C@H](O)/C=C/C=C\C/C=C\CCC(=O)O [11(S)-OH-DHA]
PPARγ agonist activity compared with 15-deoxy-PG J2 positive control [1]: comparable to or higher than that of 15-deoxy-PG J2
PPARγ agonist activity relative to the negative control group with no drug added ([1]; CAT activity after 24 hours): about 3 times
